The source of these data is patent US11655239B2 (SHANGHAI INSTITUTE OF MATERIAL MEDICA, CHINESE ACADEMY OF …, priority 2019, dated 2023).

Usually IC50 stands for the concentration that gives 50% inhibition.

The target of one assay is DDR2 (Homo sapiens (Human), UniProt Q16832). Description: DDR2 enzyme activity test (ELISA). The assay is classed as biochemical. The conditions noted are these: read-out: DDR2 IC50. The gist of the method:
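Recombinant DDR2 kinase domain (baculovirus-expressed) phosphorylates coated Poly(Glu,Tyr) 4:1 in HEPES pH 7.4 buffer with Mg/Mn, 1% DMSO, 1 h at 37 °C. Phosphotyrosine detected by PY99/HRP ELISA with OPD read at 490 nm; IC50 from four-parameter fit.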
For orientation: In an ELISA, binding on a coated surface is turned into a signal by an enzyme label.

The next assay has as its target Abl (Homo sapiens (Human), UniProt P00519). Description: Enzyme selectivity test (ELISA), Abl. It counts as biochemical. The procedure: (§1) 1) Enzyme reaction substrate Poly(Glu, Tyr) 4:1 was diluted to 20 μg/mL with potassium-free PBS (10 mM sodium phosphate buffer, 150 mM NaCl, pH 7.2-7.4), and the microtiter plate was coated with 125 μL/well and placed at 37° C. for 12-16 hours of reaction. The liquid in the well was discard. The plate was washed three times with T-PBS (potassium-free PBS containing 0.1% Tween-20, 200 μL/well), 5 minutes each time. The ELISA plate was dried in an oven at 37° C. for 1 to 2 hours.
(§2) 2) Reaction buffer (50 mM HEPES pH 7.4, 50 mM MgCl2, 0.5 mM MnCl2, 0.2 mM Na3VO4, 1 mM DTT) diluted ATP solution (49 μL) was added to each well, 1 μL of the compound to be tested was added to each well, and then 50 μL of DDR2 kinase domain recombinant protein diluted in the reaction buffer was added to start the reaction. Two control wells without ATP were set in each experiment. The plate placed on a shaker (100 rpm) at 37° C. for 1 hour of reaction. The liquid in the well was discarded and the plate was washed three times with T-PBS.
(§3) 3) Antibody PY99 dilution solution (the antibody was diluted 1:500 with T-PBS containing BSA 5 mg/mL) was added at 100 μL/well, and shaken on a shaker at 37° C. for 0.5 hour of reaction. The liquid in the well was discarded and the plate was washed three times with T-PBS.
(§4) 4) Horseradish peroxidase labeled goat anti-murine secondary antibody dilution solution (the antibody is diluted 1:2000 with T-PBS containing BSA 5 mg/ml) was added at 100 μL/well, and shaken on a shaker at 37° C. for 0.5 hour of reaction. The liquid in the well was discarded and the plate was washed three times with T-PBS.
(§5) 5) 2 mg/ml of OPD color developing solution [diluted with 0.1 M citric acid-sodium citrate buffer (pH=5.4) containing 0.03% H2O2] was added at 100 μL/well and reacted for 1 to 10 minutes at 25° C. in the dark.
(§6) 6) 2M H2SO4 was added at 50 μL/well to stop the reaction, and a tunable wavelength microplate reader VERSAmax was used for reading at a wavelength of 490 nm.
(§7) The IC50 value was obtained by four-parameter regression using the software that came with the microplate reader. […]

The next assay has as its target ErbB2 (Homo sapiens (Human), UniProt P04626). Briefly: Enzyme selectivity test (ELISA), ErbB2. It counts as biochemical. The procedure:
as §1, §2, §3, §4, §5, §6, §7

The target of a further assay is Flt-3 (Homo sapiens (Human), UniProt P36888). Description: Enzyme selectivity test (ELISA), Flt-3. It counts as biochemical. Here is the method:
as §1, §2, §3, §4, §5, §6, §7

The next assay concerns primary lung fibroblasts. Description: Activation of myofibroblasts in primary lung fibroblasts isolated from mice. Conditions: primary lung fibroblasts isolated from mice of the experimental groups. It counts as cell-based, mouse.
For the next assay, the target named is IGF-1R (Homo sapiens (Human), UniProt P08069). Description: Enzyme selectivity test (ELISA), IGF-1R. It counts as biochemical. The procedure:
as §1, §2, §3, §4, §5, §6, §7

The target in the next assay is VEGFR-1 (Homo sapiens (Human), UniProt P17948). Briefly: Enzyme selectivity test (ELISA), VEGFR-1. The assay is classed as biochemical. The procedure:
as §1, §2, §3, §4, §5, §6, §7

In a further assay the target is RET (Homo sapiens (Human), UniProt P07949). Briefly: Enzyme selectivity test (ELISA), RET. The assay is classed as biochemical. Here is the method: as §1, §2, §3, §4, §5, §6, §7
Sequence of RET (P07949 29-1114, species assumed): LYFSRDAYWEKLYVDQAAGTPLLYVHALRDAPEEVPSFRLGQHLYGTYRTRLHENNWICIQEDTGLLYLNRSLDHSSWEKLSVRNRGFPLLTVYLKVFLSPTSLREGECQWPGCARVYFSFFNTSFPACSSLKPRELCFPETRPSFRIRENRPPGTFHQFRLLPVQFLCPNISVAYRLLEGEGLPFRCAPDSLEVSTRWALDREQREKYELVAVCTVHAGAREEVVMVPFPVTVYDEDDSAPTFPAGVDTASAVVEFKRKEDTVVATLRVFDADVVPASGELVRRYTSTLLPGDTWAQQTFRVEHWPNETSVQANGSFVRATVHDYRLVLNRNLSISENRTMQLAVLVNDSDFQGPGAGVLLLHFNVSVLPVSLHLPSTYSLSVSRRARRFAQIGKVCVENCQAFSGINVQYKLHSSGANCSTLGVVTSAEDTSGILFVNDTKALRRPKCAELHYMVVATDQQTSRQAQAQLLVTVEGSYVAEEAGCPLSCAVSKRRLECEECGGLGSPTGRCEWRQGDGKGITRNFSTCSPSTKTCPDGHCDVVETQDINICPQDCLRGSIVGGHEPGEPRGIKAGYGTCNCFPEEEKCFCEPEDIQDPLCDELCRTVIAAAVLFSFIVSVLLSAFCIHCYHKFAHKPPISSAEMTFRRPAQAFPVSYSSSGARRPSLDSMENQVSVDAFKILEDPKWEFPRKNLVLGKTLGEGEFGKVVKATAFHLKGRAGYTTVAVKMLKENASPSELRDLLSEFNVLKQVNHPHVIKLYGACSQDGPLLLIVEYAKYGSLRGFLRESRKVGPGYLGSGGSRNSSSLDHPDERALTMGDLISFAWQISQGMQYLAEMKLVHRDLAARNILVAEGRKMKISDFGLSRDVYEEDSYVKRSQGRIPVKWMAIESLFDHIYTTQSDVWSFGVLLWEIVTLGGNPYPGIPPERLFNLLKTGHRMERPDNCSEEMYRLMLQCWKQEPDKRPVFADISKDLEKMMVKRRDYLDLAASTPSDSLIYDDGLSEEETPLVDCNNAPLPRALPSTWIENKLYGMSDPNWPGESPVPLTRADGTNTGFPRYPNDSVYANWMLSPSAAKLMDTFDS
For assay [1], the system named is pulmonary fibrosis induced by bleomycin in mice. Description: Active TGF-β1 in BALF (ELISA). Conditions: 90 mg/kg; reduced from 123 pg/ml in BLM group. The assay is classed as in vivo, mouse. The procedure:
The expression level of active TGF-β1 in BALF was detected by using the TGF-β1 ELISA detection kit (Shanghai Wuhao Bio-Tech Co., Ltd). The steps are as follows:
1) 10 standard wells were set on the enzyme coated plate. After the standard was diluted, the volume in each well was 50 μl, and the concentration was 1800 ng/L, 1200 ng/L, 600 ng/L, 300 ng/L, 150 ng/L, respectively. The concentration was the same every two tubes.
2) Sample addition: a blank well (no sample and enzyme reagent) and a well for the sample to be tested were set, respectively. 40 μl of sample dilution solution was added to the well for the sample to be tested on the enzyme coated plate, and then 10 μl of the sample to be tested was added.
3) Incubation: the sample to be tested was sealed with a sealing film and then incubated at 37° C. for 30 minutes.
4) Solution preparation: the concentrated washing liquid (30 times (20 times of 48T)) was diluted 30 times (20 times of 48T) with distilled water for use.
5) Wash: the liquid was discarded and spun dry. Each well was filled with the washing liquid. After standing for 30 seconds, the washing liquid was discarded. This was repeated 5 times and pat dry. […]
10) Determination: zero setting was performed using a blank well within 15 minutes after the reaction was stopped, and the absorbance (OD value) of each well was measured in sequence at a wavelength of 450 nm.

For another assay, the target named is AXL (Homo sapiens (Human), UniProt P30530). Description: Enzyme selectivity test (ELISA), AXL. It counts as biochemical. The procedure: as §1, §2, §3, §4, §5, §6, §7

Sequence of Flt-3 (P36888 27-993, species assumed): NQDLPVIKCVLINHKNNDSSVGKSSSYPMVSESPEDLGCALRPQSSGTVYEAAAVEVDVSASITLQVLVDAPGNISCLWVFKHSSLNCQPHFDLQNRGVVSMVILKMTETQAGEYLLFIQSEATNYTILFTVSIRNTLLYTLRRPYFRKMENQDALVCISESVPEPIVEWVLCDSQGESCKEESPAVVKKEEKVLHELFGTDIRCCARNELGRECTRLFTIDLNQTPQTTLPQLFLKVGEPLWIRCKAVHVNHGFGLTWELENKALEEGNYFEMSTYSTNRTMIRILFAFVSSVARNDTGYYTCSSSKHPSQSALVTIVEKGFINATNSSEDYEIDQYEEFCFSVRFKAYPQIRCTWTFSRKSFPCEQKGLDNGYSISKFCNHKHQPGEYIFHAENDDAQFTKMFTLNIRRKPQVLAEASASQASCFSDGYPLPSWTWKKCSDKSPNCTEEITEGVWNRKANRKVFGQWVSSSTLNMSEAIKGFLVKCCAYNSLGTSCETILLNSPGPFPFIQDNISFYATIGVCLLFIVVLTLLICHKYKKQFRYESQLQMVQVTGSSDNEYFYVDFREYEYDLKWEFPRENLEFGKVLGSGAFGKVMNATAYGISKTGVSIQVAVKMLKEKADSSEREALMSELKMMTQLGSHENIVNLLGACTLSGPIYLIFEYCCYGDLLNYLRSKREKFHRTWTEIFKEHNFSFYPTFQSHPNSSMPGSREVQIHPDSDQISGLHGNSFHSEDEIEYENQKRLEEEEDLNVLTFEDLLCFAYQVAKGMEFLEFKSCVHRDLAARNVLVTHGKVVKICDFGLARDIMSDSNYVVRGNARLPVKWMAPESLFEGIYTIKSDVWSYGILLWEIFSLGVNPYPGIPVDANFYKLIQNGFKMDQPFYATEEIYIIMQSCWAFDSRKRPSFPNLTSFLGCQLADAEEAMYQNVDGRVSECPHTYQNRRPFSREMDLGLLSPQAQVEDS
Sequence of Abl (P00519 whole entry, species assumed, the tested form may be a part): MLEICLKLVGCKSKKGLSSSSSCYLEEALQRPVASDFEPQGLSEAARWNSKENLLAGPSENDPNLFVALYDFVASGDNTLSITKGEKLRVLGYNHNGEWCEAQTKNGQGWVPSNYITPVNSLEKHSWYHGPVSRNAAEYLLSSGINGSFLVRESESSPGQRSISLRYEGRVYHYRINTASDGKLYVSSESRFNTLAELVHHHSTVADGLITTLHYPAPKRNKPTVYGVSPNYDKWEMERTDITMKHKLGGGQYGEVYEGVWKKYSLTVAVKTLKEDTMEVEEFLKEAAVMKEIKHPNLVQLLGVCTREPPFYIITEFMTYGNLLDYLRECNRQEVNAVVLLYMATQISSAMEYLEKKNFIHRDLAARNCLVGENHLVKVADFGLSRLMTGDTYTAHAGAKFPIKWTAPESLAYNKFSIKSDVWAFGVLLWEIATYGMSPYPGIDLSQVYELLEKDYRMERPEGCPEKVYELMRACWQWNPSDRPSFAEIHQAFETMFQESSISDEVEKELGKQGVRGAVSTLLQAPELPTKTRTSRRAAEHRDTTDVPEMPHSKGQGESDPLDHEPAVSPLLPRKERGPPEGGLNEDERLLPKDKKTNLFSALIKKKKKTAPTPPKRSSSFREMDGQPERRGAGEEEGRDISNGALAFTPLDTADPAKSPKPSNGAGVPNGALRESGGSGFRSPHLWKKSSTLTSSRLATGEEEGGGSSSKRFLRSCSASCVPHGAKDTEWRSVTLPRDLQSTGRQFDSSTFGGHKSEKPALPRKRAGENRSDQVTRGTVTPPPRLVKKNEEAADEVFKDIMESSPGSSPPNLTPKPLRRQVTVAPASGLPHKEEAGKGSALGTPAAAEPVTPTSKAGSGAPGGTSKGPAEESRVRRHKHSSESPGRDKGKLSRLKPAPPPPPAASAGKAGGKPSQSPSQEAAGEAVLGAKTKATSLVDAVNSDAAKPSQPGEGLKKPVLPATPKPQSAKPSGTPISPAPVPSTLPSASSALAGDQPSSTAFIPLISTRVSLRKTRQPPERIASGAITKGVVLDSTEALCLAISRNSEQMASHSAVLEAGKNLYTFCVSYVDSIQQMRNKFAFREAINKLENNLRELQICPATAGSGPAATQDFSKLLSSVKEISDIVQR
Sequence of ErbB2 (P04626 23-1255, species assumed): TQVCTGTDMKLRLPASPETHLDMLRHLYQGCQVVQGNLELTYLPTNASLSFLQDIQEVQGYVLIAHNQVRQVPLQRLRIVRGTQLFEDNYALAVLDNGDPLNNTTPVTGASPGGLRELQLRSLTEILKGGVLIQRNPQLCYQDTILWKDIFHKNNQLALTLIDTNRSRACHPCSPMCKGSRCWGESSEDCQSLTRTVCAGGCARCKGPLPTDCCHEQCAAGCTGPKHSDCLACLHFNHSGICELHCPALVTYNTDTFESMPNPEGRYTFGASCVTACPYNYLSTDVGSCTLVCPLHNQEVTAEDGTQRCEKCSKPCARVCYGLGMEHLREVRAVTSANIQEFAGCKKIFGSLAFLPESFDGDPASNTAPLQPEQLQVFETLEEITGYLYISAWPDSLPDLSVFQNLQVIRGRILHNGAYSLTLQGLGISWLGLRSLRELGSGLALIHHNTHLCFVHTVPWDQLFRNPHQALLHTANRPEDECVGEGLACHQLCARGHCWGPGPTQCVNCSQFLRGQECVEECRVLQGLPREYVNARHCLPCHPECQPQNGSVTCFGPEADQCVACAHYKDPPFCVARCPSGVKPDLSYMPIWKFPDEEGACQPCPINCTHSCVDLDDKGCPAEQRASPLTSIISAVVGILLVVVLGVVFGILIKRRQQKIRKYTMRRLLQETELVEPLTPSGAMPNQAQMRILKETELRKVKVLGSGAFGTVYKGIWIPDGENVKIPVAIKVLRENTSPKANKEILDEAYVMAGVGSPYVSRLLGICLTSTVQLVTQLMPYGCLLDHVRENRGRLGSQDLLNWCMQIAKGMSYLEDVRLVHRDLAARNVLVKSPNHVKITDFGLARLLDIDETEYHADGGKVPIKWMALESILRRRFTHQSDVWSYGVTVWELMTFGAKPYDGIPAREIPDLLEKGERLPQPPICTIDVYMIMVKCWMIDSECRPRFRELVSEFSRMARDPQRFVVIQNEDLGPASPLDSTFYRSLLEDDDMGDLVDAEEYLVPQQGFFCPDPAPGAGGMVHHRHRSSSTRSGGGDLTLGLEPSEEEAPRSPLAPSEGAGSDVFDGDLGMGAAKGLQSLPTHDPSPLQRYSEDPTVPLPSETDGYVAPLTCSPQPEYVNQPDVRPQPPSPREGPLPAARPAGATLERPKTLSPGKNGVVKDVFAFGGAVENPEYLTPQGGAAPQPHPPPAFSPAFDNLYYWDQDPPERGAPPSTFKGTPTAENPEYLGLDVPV
Sequence of DDR2 (Q16832 563-849): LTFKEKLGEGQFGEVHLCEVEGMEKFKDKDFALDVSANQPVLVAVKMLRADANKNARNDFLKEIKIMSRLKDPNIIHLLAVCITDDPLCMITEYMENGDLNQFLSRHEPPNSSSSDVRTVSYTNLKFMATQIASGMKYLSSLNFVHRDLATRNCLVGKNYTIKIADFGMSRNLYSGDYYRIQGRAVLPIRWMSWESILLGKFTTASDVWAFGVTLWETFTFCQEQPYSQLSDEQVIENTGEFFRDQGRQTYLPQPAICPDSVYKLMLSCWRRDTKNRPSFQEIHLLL

For `O=C(Nc1cccc(C(F)(F)F)c1)c1ccc(C2CC2)c(-c2ccc3nc(Nc4cnn(C5CC5)c4)ncc3c2)c1` [Compound S15, 4-cyclopropyl-3-(2-((1-cyclopropyl-1H-pyrazol-4-yl)amino)quinazolin-6-yl)-N-(3-(trifluoromethyl)phenyl)benzamide], the IC50 at DDR2 is 6.1 ± 0.5 nM; against Abl, less than 10 nM; against ErbB2, greater than 1000 nM; against Flt-3, greater than 1000 nM; against IGF-1R, greater than 1000 nM; at VEGFR-1 it was greater than 1000 nM. Besides, the IC50 against RET and on AXL was greater than 1000 nM throughout. Besides, in the assay with primary lung fibroblasts, the activation of myofibroblasts result is “inhibit the activation of myofibroblasts in a dose-dependent manner”. In addition, the “active TGF-β1 in BALF” value in [1] came out at 48 pg/mL.
